Assays:
herring sperm DNA = assay: DNA melting temperature by differential scanning calorimetry (DSC); type: binding; conditions: for DNA melt (° C.): DSC, herring sperm DNA, DNA melting temperature = 68° C.
Protocol: Representative compounds prepared as described in Example 2 were assessed in two complementary DNA-binding assays. Increased melting temperature of herring sperm DNA was measured using differential scanning calorimetry (DSC) and binding kinetics were determined by surface plasmon resonance (SPR) using a short DNA hairpin sequence.
DSC experiments were conducted as described in Leng, 2003, Nucleic Acids Res., 31 (21): […], using a Nano DSC (TA Instruments, New Castle, DE) and analyzed using the NanoAnalyze™ software package. Herring sperm DNA solution (Invitrogen 15634017, 10 mg/mL) was diluted to 1 mg/mL (1.4 mM base pair) in BPE buffer (6 mM Na2HPO4, 2 mM NaH2PO4, 1 mM Na4EDTA, pH 7.0). Test articles (20 μL, 10 mM in DMSO) were added and allowed reach equilibrium binding (>3 h), any insoluble material was removed by low-speed centrifugation, then samples were heated from 25 to 110° C. at a scan rate of 1° C./min. Melting curves were plotted and melting temperature was determined using NanoAnalyze™.

[1] = Lipophilicity by experimental HPLC retention time; type: physicochemical; conditions: HPLC retention time as measure of lipophilicity; C18, 10 to 90% CH3CN/H2O with 0.1% FA over 25 min
Protocol: The ability to kill neighboring cells (i.e. bystander effect) is an important property for ADC payloads. For a payload comprising a compound of Formula I to be capable of bystander killing, membrane permeability (or transport) is required and the ability of compounds of Formula I to cross cell membranes and exert a cytotoxic effect was expected to be heavily influenced by lipophilicity.
Compounds were analyzed using an Agilent 1260 HPLC (Agilent Technologies, Inc., Santa Clara, CA) equipped with a Diode array detector and using a Phenomenex Kinetex EVO C18 150×4.6, 2.6 μm column (Phenomenex, Torrance, CA), eluting with 10 to 90% CH3CN/H2O with 0.1% FA over 25 min.

[2] = system: tumour cells (at least 4 of a panel of ovarian, breast, lung, pancreatic, placenta, colon cell lines); assay: In vitro cytotoxicity (cell proliferation, CellTiter-Glo), average over tumour cell line panel; type: cell-based; conditions: average pIC50 on all cell lines tested; 5 nights incubation; CellTiter-Glo
Protocol: The ability of representative compounds of Formula I to inhibit proliferation of tumour cells in vitro was evaluated in at least 4 of the following cell lines: OVCAR-3 (ovarian, ATCC), SKOV-3 (ovarian, ATCC), IGROV-1 (ovarian, national research council of Canada (NRC)), OV-90 (ovarian, ATCC), OVKATE (Ovarian, Japanese Collection of Research Bioresources (JCRB) (JCRB1044)), JIMT-1 (breast, NRC), SK-BR-3 (breast, ATCC), T-47D (breast, ATCC), ZR-75-1 (breast, ATCC), MDA-MB-468 (breast, AddexBio), BT-20 (breast, ATCC), BT-474 (breast, NRC), MDA-MB-175 (breast, AddexBio), A549 (lung, collaborator), NCI-H226 (lung, NRC), NCI-H661 (lung, NRC), NCI-H1573 (lung, ATCC). NCI-H1563 (lung, ATCC), H358 (lung, collaborator), EBC-1 (lung, Xenotech), H1299 (lung, NRC), NCI-H292 (lung, ATCC), HCC817 (lung, ATCC), NCI-H441 (lung, ATCC), MIA-PaCa-2 (pancreatic, ATCC), BxPC-3 (pancreatic, ATCC), Panc-1 (pancreatic, ATCC), AsPC-1 (pancreatic, ATCC), JEG-3 (placenta, AddexBio), HT-29 (colon, ATCC).
Cells were cultured per vendor instructions and in log-phase growth were detached by brief incubation in 0.05% trypsin, then resuspended in respective culturing media at 20,000 cells/mL (except for ZR-75 cells, which were resuspended at 10,000 cells/mL). 50 μL/well (˜1000 cells/well) were transferred to sterile tissue culture (TC)-treated 384-well plates (ThermoFisher Scientific, Catalogue #164610) and incubated overnight at 37° C. with 5% CO2 to allow the cells to adhere to the plate surface. The next day, in a sterile, V-bottom, 96-well plate, test articles were titrated 1:3 in complete growth medium, creating a 10-point dose response titration with compounds at 3.5-times the desired final concentration. 20 μL from each dilution were added to the 384-well plate containing the seeded cells and these plates were incubated at 37° C. with 5% CO2 for 5 nights. Cell viability was quantified by first incubating with 15 μL/well of CellTiter-Glo® (Promega, Catalogue #G7572) for 30 minutes, then measuring luminescence with a microplate luminometer (BioTek® Synergy™ H1 Microplate Reader). IC50 values were determined by GraphPad Prism (GraphPad Software, San Diego, CA).
The results are presented in Table 7.1 and discussed in Example 7. Table 7.1 presents the results as average pIC50 values. pIC50=−log (IC50), thus, for example, pIC50=9 is equivalent to IC50=1 nM, and pIC50=6 is equivalent to IC50=1 μM.

Row | SMILES | DNA melt (° C.) (herring sperm DNA) | HPLC [1] [min] | pIC50 (average) [2] | DNA binding (in words) (herring sperm DNA; only DSC data in Table 7.1)
1 | CC(C)[C@H]1COC[C@@H](NC(=O)c2nc3ccccc3cc2O)C(=O)N2CCCC[C@H]2C(=O)NCC(=O)N(C)CC(=O)N(C)[C@@H](C(C)C)COC[C@@H](NC(=O)c2nc3ccccc3cc2O)C(=O)N2CCCC[C@H]2C(=O)NCC(=O)N(C)CC(=O)N1C [Compound 172, N,N′-((7R,11S,19aS,26R,30S,38aS)-11,30-diisopropyl-12,15,31,34-tetramethyl-6,13,16,19,25,32,35,38-octaoxodotriacontahydro-2H,6H,10H,25H-dipyrido[2,1-b1: 2′,1′-l][1,17]dioxa[4,7,10,13,20,23,26,29]octaazacyclodotriacontine-7,26-diyl)bis(3-hydroxyquinoline-2-carboxamide)] | 91 °C | 18.2 | 7.9 | –
2 | CC(C)[C@H]1C(=O)NC[C@@H](NC(=O)c2nc3ccccc3cc2O)C(=O)N2CCCC[C@H]2C(=O)NCC(=O)N(C)CC(=O)N2CCCCC[C@H]2C(=O)NC[C@@H](NC(=O)c2nc3ccccc3cc2O)C(=O)N2CCCC[C@H]2C(=O)NCC(=O)N(C)CC(=O)N1C [Compound 88, N,N′-((5aS,9R,15aS,24S,28R,34aS)-24-isopropyl-20,23,39-trimethyl-6,10,16,19,22,25,29,35,38,41-decaoxotetracontahydro-1H,12H-azepino[1,2-j]dipyrido[1,2-a:1′,2′-q][1,4,7,10,13,17,20,23,26,29]decaazacyclodotriacontine-9,28-diyl)bis(3-hydroxyquinoline-2-carboxamide)] | 88 °C | 16.4 | 8.5 | –
3 | CC(C)[C@H]1C(=O)NC[C@@H](NC(=O)c2nc3ccccc3cc2O)C(=O)N2CCCC[C@H]2C(=O)NCC(=O)N(C)CC(=O)N(C)[C@@H]([C@@H](C)OC(C)(C)C)C(=O)NC[C@@H](NC(=O)c2nc3ccccc3cc2O)C(=O)N2CCCC[C@H]2C(=O)NCC(=O)N(C)CC(=O)N1C [Compound 54, N,N′-((7R,11S,19aS,26R,30S,38aS)-11-((R)-1-(tert-butoxy)ethyl)-30-isopropyl-12,15,31,34-tetramethyl-6,10,13,16,19,25,29,32,35,38-decaoxohexatriacontahydro-2H,6H-dipyrido[1,2-a:1′,2′-q][1,4,7,10,13,17,20,23,26,29]decaazacyclodotriacontine-7,26-diyl)bis(3-hydroxyquinoline-2-carboxamide)] | 88 °C | 18.4 | 8.1 | –
4 | CC(C)[C@H]1C(=O)NC[C@@H](NC(=O)c2nc3ccccc3cc2O)C(=O)N2CCCC[C@H]2C(=O)NCC(=O)N(C)CC(=O)N(C)[C@@H](C(C)C)C(=O)NC[C@@H](NC(=O)c2nc3ccccc3cc2O)C(=O)N2CCCC[C@H]2C(=O)NCC(=O)N(C)CC(=O)N1C [Compound 35, N,N′-((7R,11S,19aS,26R,30S,38aS)-11,30-diisopropyl-12,15,31,34-tetramethyl-6,10,13,16,19,25,29,32,35,38-decaoxohexatriacontahydro-2H,6H-dipyrido[1,2-a:1′,2′-q][1,4,7,10,13,17,20,23,26,29]decaazacyclodotriacontine-7,26-diyl)bis(3-hydroxyquinoline-2-carboxamide)] | 88 °C | 17.1 | 7.3 | –
5 | CC(C)[C@H]1C(=O)NC[C@@H](NC(=O)c2nc3ccccc3cc2O)C(=O)N2CCCC[C@H]2C(=O)NCCOCC(=O)N(C)[C@@H](C(C)C)C(=O)NC[C@@H](NC(=O)c2nc3ccccc3cc2O)C(=O)N2CCCC[C@H]2C(=O)NCCOCC(=O)N1C [Compound 404, N,N′-((7R,11S,19aS,26R,30S,38aS)-11,30-diisopropyl-12,31-dimethyl-6,10,13,19,25,29,32,38-octaoxodotriacontahydro-2H,6H,16H,25H-dipyrido[1,2-a1: 1′,2′-k][1,17]dioxa[4,7,11,14,20,23,27,30]octaazacyclodotriacontine-7,26-diyl)bis(3-hydroxyquinoline-2-carboxamide)] | 68^1 °C | 16.0 | Inactive | did not demonstrate measurable DNA binding

From patent US20240376154A1, “BIS-INTERCALATING PEPTIDES, CONJUGATES AND METHODS OF USE” (ZYMEWORKS BC INC., priority 2023, published 2024)
